{"source": "patent US7002015B2", "about": "“3-Thia-4-arylquinolin-2-one derivatives as smooth muscle relaxants” (Bristol-Myers Squibb Company, priority 2003, dated 2006)", "type_in_all_cases": "cell-based", "key": {"[1]": {"system": "cloned mammalian (mSlo or hSlo) BK", "assay": "Assay for BK channel openers: two-electrode voltage clamp of BK-mediated outward current in Xenopus oocytes", "details": "percent of control IBTX-sensitive current at +140 mV; 20 μM (or as otherwise indicated); 5–10 oocytes", "procedure": "The ability of the compounds of the invention to open BK channels and increase whole-cell outward (K^+) BK-mediated currents was assessed under voltage-clamp conditions by determining their ability to increase cloned mammalian (mSlo or hSlo) BK-mediated outward current heterologously expressed in Xenopus oocytes [Butler, A., et al., Science 1993, 261, 221–224; Dworetzky, S. I., et al., Mol. Brain Res. 1994, 27, 189–193; Gribkoff, V. K., et al., Mol. Pharmacol. 1996, 50, 206–217]. The two BK constructs employed represent nearly structurally identical homologous proteins, and have proven to be pharmacologically indistinguishable in our tests. To isolate BK current from native (background, non-BK) current, the specific and potent BK channel-blocking toxin iberiotoxin (IBTX) [Galvez, A., et al., J. Biol. Chem. 1990, 265, 11083–11090] was employed at a supramaximal concentration, e.g., 50–100 nanomolar (“nM”). The relative contribution of BK channel-mediated current to total outward current was determined by subtraction of the current remaining in the presence of IBTX (non-BK current) from the current profiles obtained in all other experimental conditions (control, drug, and wash) [Gribkoff, V. K. et al., Mol. Pharmacol. 1996, 50, 206–217]. […] All compounds were tested in 5–10 oocytes and are reported at the indicated concentration of 20 micromolar (“μM”) (or as otherwise indicated); the effect of the selected compounds of the invention on BK current was expressed as the percent of control IBTX-sensitive current at a single transmembrane voltage (+140 mV) and is listed in Table 1. Recordings were accomplished using standard two-electrode voltage clamp techniques [Stuhmer, W., et al., Methods in Enzymology, 1992, 207, 319–339]; voltage-clamp protocols consisted of 500–750 milliseconds (“ms”) duration step depolarizations, from a holding potential of −60 mV, to a final voltage up to +140 mV in 20 mV steps. The experimental media (modified Barth's solution) consisted of millimolar (“mM”): NaCl (88), NaHCO3 (2.4), KCl (1.0), HEPES (10), MgSO4 (0.82), Ca(NO3)2 (0.33), CaCl2 (0.41); pH 7.5."}, "[2]": {"system": "rabbit corpus cavernosum tissue", "assay": "Rabbit corpus cavernosum strips: relaxation of phenylephrine-induced force", "details": "Oryctolagus cuniculus, inhibition of phenylephrine (3 μM)-induced force as compared to vehicle control, read-out: % Inhibition of force (RCC strips)", "procedure": "The ability of the compounds of the invention to relax rabbit corpus cavernosum tissue as a model for the treatment of erectile dysfunction is described as follows. New Zealand white rabbits (3.4–3.7 kg) were euthanized by sodium pentobarbital (100 mg/kg) overdose. The penis from each animal was rapidly removed and immersed in a cold oxygenated modified Krebs Henseleit bicarbonate buffer. The penis' outer tunica was removed and the corpus cavernosum smooth muscle obtained and cut into strips approximately 3–5 mm long. The strips were suspended in tissue baths containing physiological salt solution (see above), and allowed to equilibrate for at least one hour under resting tension of 1.0 gram. Isometric force was measured as described above. Tissue strips were stimulated with the α-agonist phenylephrine (3 μM) and allowed to reach a steady level of force prior to the addition of test compounds. The results are expressed as the percentage inhibition of phenylephrine-induced force as compared to vehicle control."}, "[3]": {"system": "rat small intestine tissue", "assay": "Rat small intestine (ileum) segments: inhibition of nifedipine-sensitive force", "set-up": "concentration or dose not given beside the values", "details": "integral of nifedipine-sensitive force pre- and 30 min post-compound", "from_the_text": "The ability of the compounds of the invention to relax rat small intestine tissue as a model for the treatment of irritable bowel syndrome is described as follows. Male rats (Harlan, Sprague Dawley, 250–350 g) were sacrificed by decapitation. A portion of small intestine (ileum) was removed and the attached connective tissues and intestinal contents removed. The ileum was cut into segments of ≦1 cm in length. The segments were mounted longitudinally between fixed hooks in organ baths containing warm (37° C.) physiological salt solution (composition in mM: NaCl 118.4, KCl 4.7, KH2PO4 1.2, MgSO4 1.2, CaCl2 1.8, Glucose 10.1, NaHCO3 25; gassed with 95% O2/5% CO2, pH 7.4). A stable tension of ˜1.5 g was maintained in the tissue segments during the equilibration period of 45 minutes. Changes in muscle tension were measured with isometric force transducers (Grass, FT-03C) and recorded using AcqKnowledge data acquisition system (AcqKnowledge for MP100WS, Biopac Systems Inc., Goleta, Calif.). Compound or vehicle was added in the baths for 30 minutes. “Zero” active force was established at the end of the experiment using nifedipine (20 μM). The effects of compounds or vehicle on force was determined by measuring the integral of nifedipine-sensitive force (including resting tone and spontaneous contractions) pre- and 30 min post-compound (or vehicle) addition. Results are expressed as the percentage inhibition of force. DMSO vehicle inhibited force (integral) by −0.6±3.0% (n=25)."}}}
{"compound": "O=C(CCN1CCCC1)CSc1c(-c2cc(Cl)ccc2O)c2cc(C(F)(F)F)ccc2[nH]c1=O", "note": "[Example 2, 4-(5-Chloro-2-hydroxy-phenyl)-3-(2-oxo-4-pyrrolidin-1-yl-butylsulfanyl)-6-trifluoromethyl-1H-quinolin-2-one]", "values": [{"measurement": "% MaxiK opening*", "setting": "[1]", "value": 335, "unit": "%"}, {"measurement": "inhibition", "setting": "[2]", "value": 30, "unit": "%"}]}
{"compound": "CN1CCN(CCC(=O)CSc2c(-c3cc(Cl)ccc3O)c3cc(C(F)(F)F)ccc3[nH]c2=O)CC1", "note": "[Example 3, 4-(5-Chloro-2-hydroxy-phenyl)-3-[4-(4-methyl-piperazin-1-yl)-2-oxo-butylsulfanyl]-6-trifluoromethyl-1H-quinolin-2-one]", "values": [{"measurement": "% MaxiK opening*", "setting": "[1]", "value": 550, "unit": "%"}]}
{"compound": "CN(C)C1CCN(C(=O)CSc2c(-c3cc(Cl)ccc3O)c3cc(C(F)(F)F)ccc3[nH]c2=O)CC1", "note": "[Example 5, 4-(5-Chloro-2-hydroxy-phenyl)-3-[2-(4-dimethylamino-piperidin-1-yl)-2-oxo-ethylsulfanyl]-6-trifluoromethyl-1H-quinolin-2-one]", "values": [{"measurement": "% MaxiK opening*", "setting": "[1]", "value": 286, "unit": "%"}, {"measurement": "inhibition", "setting": "[2]", "value": 34.5, "unit": "%"}, {"measurement": "% Inhibition of force (RSI strips)", "setting": "[3]", "value": 58.5, "unit": "%"}]}
{"compound": "O=C(CCN1CCCCC1)CSc1c(-c2cc(Cl)ccc2O)c2cc(C(F)(F)F)ccc2[nH]c1=O", "note": "[Example 7, 4-(5-Chloro-2-hydroxyphenyl)-3-[[2-oxo-4-(1-piperidinyl)butyl]thio]-6(trifluoromethyl)-2(1H)-quinolinone]", "values": [{"measurement": "% MaxiK opening*", "setting": "[1]", "value": 199, "unit": "%"}, {"measurement": "% Inhibition of force (RSI strips)", "setting": "[3]", "value": 29, "unit": "%"}]}
{"compound": "O=C(CCN1CCN(CCO)CC1)CSc1c(-c2cc(Cl)ccc2O)c2cc(C(F)(F)F)ccc2[nH]c1=O", "note": "[Example 21, 4-(5-Chloro-2-hydroxyphenyl)-3-[[4-[4-(2-hydroxyethyl)-1-piperazinyl]-2-oxobutyl]thio]-6-(trifluoromethyl)-2(1H)-quinolinone]", "values": [{"measurement": "% MaxiK opening*", "setting": "[1]", "value": 241, "unit": "%"}]}
{"compound": "O=C(CCN1CCC(O)CC1)CSc1c(-c2cc(Cl)ccc2O)c2cc(C(F)(F)F)ccc2[nH]c1=O", "note": "[Example 30, 4-(5-Chloro-2-hydroxyphenyl)-3-[[4-(4-hydroxy-1-piperidinyl)-2-oxobutyl]thio]-6-(trifluoromethyl)-2(1H)-quinolinone]", "values": [{"measurement": "% MaxiK opening*", "setting": "[1]", "value": 235, "unit": "%"}]}
{"compound": "CN(C)CCCN(C)CCC(=O)CSc1c(-c2cc(Cl)ccc2O)c2cc(C(F)(F)F)ccc2[nH]c1=O", "note": "[Example 35, 4-(5-Chloro-2-hydroxyphenyl)-3-[[4-[[3-(dimethylamino)propyl]methylamino]-2-oxobutyl]thio]-6-(trifluoromethyl)-2(1H)quinolinone]", "values": [{"measurement": "% MaxiK opening*", "setting": "[1]", "value": 178, "unit": "%"}]}
{"compound": "CC(=O)N1CCN(CCCC(=O)CSc2c(-c3cc(Cl)ccc3O)c3cc(C(F)(F)F)ccc3[nH]c2=O)CC1", "note": "[Example 63, 1-Acetyl-4-[5-[[4-(5-chloro-2-hydroxyphenyl)-1,2-dihydro-2-oxo-6-(trifluoromethyl)-3-quinolinyl]thio]-4-oxopentyl]piperazine]", "values": [{"measurement": "% MaxiK opening*", "setting": "[1]", "value": 284, "unit": "%"}]}
{"compound": "CC1CCCN(CCCC(=O)CSc2c(-c3cc(Cl)ccc3O)c3cc(C(F)(F)F)ccc3[nH]c2=O)C1", "note": "(stereo not drawn) [Example 65, 4-(5-Chloro-2-hydroxyphenyl)-3-[[5-(3-methyl-1-piperidinyl)-2-oxopentyl]thio]-6-(trifluoromethyl)-2(1H)-quinolinone]", "values": [{"measurement": "% MaxiK opening*", "setting": "[1]", "value": 271, "unit": "%"}]}
{"compound": "CC1CCN(CCCC(=O)CSc2c(-c3cc(Cl)ccc3O)c3cc(C(F)(F)F)ccc3[nH]c2=O)CC1", "note": "[Example 66, 4-(5-Chloro-2-hydroxyphenyl)-3-[[5-(4-methyl-1-piperidinyl)-2-oxopentyl]thio]-6-(trifluoromethyl)-2(1H)-quinolinone]", "values": [{"measurement": "% MaxiK opening*", "setting": "[1]", "value": 213, "unit": "%"}]}
{"compound": "CN1CCC(N(C)CCCC(=O)CSc2c(-c3cc(Cl)ccc3O)c3cc(C(F)(F)F)ccc3[nH]c2=O)C1", "note": "(stereo not drawn) [Example 68, 4-(5-chloro-2-hydroxyphenyl)-3-[[5-[methyl(1-methyl-3-pyrrolidinyl)amino]-2-oxopentyl]thio]-6-(trifluoromethyl)-2(1H)-quinolinone]", "values": [{"measurement": "% MaxiK opening*", "setting": "[1]", "value": 226, "unit": "%"}]}
{"compound": "O=C(CCCN1CCC(N2CCCCC2)CC1)CSc1c(-c2cc(Cl)ccc2O)c2cc(C(F)(F)F)ccc2[nH]c1=O", "note": "[Example 72, 3-[(5-[1,4′-Bipiperidin]-1′-yl-2-oxopentyl)thio]-4-(5-chloro-2-hydroxyphenyl)-6-(trifluoromethyl)-2(1H)-quinolinone]", "values": [{"measurement": "% MaxiK opening*", "setting": "[1]", "value": 298, "unit": "%"}]}
{"compound": "CN1CCN(C(=O)CSc2c(-c3cc(Cl)ccc3O)c3cc(C(F)(F)F)ccc3[nH]c2=O)CC1", "note": "[Example 84, 1-[[[4-(5-Chloro-2-hydroxyphenyl)-1,2-dihydro-2-oxo-6-(trifluoromethyl)-3-quinolinyl]thio]acetyl]-4-methylpiperazine]", "values": [{"measurement": "% MaxiK opening*", "setting": "[1]", "value": 422, "unit": "%"}, {"measurement": "inhibition", "setting": "[2]", "value": 14.4, "unit": "%"}]}
{"compound": "O=C(CSc1c(-c2cc(Cl)ccc2O)c2cc(C(F)(F)F)ccc2[nH]c1=O)N1CCN(CCOCCO)CC1", "note": "[Example 98, 2-[2-[4-[[[4-(5-Chloro-2-hydroxyphenyl)-1,2-dihydro-2-oxo-6-(trifluoromethyl)-3-quinolinyl]thio]acetyl]-1-piperazinyl]ethoxy]ethanol]", "values": [{"measurement": "% MaxiK opening*", "setting": "[1]", "value": 205, "unit": "%"}, {"measurement": "inhibition", "setting": "[2]", "value": 17, "unit": "%"}, {"measurement": "% Inhibition of force (RSI strips)", "setting": "[3]", "value": 9, "unit": "%"}]}
{"compound": "O=C(CSc1c(-c2cc(Cl)ccc2O)c2cc(C(F)(F)F)ccc2[nH]c1=O)N1CCN(CCO)CC1", "note": "[Example 103, 4-[[[4-(5-Chloro-2-hydroxyphenyl)-1,2-dihydro-2-oxo-6-(trifluoromethyl)-3-quinolinyl]thio]acetyl]-1-piperazineethanol]", "values": [{"measurement": "% MaxiK opening*", "setting": "[1]", "value": 151, "unit": "%"}, {"measurement": "inhibition", "setting": "[2]", "value": 22, "unit": "%"}, {"measurement": "% Inhibition of force (RSI strips)", "setting": "[3]", "value": 22.5, "unit": "%"}]}
{"compound": "NC(=O)C1CCN(C(=O)CSc2c(-c3cc(Cl)ccc3O)c3cc(C(F)(F)F)ccc3[nH]c2=O)CC1", "note": "[Example 105, 1-[[[4-(5-Chloro-2-hydroxyphenyl)-1,2-dihydro-2-oxo-6-(trifluoromethyl)-3-quinolinyl]thio]acetyl]-4-piperidinecarboxamide]", "values": [{"measurement": "% MaxiK opening*", "setting": "[1]", "value": 203, "unit": "%"}, {"measurement": "inhibition", "setting": "[2]", "value": 67, "unit": "%"}, {"measurement": "% Inhibition of force (RSI strips)", "setting": "[3]", "value": 62, "unit": "%"}]}
{"compound": "CCOC(=O)CN1CCN(C(=O)CSc2c(-c3cc(Cl)ccc3O)c3cc(C(F)(F)F)ccc3[nH]c2=O)CC1", "note": "[Example 107, 4-[[[4-(5-Chloro-2-hydroxyphenyl)-1,2-dihydro-2-oxo-6-(trifluoromethyl)-3-quinolinyl]thio]acetyl]-1-piperazineacetic acid, ethyl ester]", "values": [{"measurement": "% MaxiK opening*", "setting": "[1]", "value": 281, "unit": "%"}, {"measurement": "inhibition", "setting": "[2]", "value": 19, "unit": "%"}, {"measurement": "% Inhibition of force (RSI strips)", "setting": "[3]", "value": 46, "unit": "%"}]}
